# Data taken from patent US11447498B2, “Fused tetracyclic compounds and uses thereof in medicine” (SUNSHINE LAKE PHARMA CO., LTD., priority 2018, dated 2022).
# Assays:
# [1] = PK test experiments in SD rats; type: in vivo; parameters: VSS: unit not given here; settings: for AUC(0-inf) / AUC(0-t) / Cmax / clearance: male, rat, plasma
# Description: (§1) The PK test in vivo of the compound of the present invention in SD rats (body weight 200-250 g, male, age 2-3 months, 3 per group with oral administration, 3 per group with intravenous injection) The SD rat was administered orally with 2.5 mg/kg or 5 mg/kg of the compound tested or intravenously injected with 0.5 mg/kg or 1 mg/kg of the compound tested. After administration, venous blood was collected at time points (0.083, 0.25, 0.5, 1, 2, 5, 7 and 24 hours) and collected in an anticoagulation tube to which EDTA-K2 was added. Plasma samples were extracted by liquid-liquid extraction and quantitatively analyzed by multiple reaction ion monitoring (MRM) on a triple quadrupole tandem mass spectrometer. Pharmacokinetic parameters were calculated using a noncompartmental method by WinNonLin 6.3 software.
# HBsAg secretion = experiment: Inhibition experiment on HBsAg secretion (HepG 2,2,15 cells, ELISA); type: cell-based; settings: Hepatitis B virus, HepG2.2.15, read-out: HBsAg IC50
# From the text: (§2) The chromosomal integration of HepG2,2,15 cells (SELLS, PNAS, 1987 and SELLS, JV, 1988) has a complete HBV genome and stably expresses viral RNA and viral proteins. HepG2,2,15 cells are capable of secreting mature hepatitis B virus particles and HBsAg into the culture medium. Virus particles DNA and HBsAg secreted by HepG 2,2,15 cells can be quantified by qPCR and ELISA, and the effects of compounds on viral replication and HBsAg secretion can be detected.
# (§3) HepG 2,2,15 cells were inoculated with 8,000 per cell to 96-well cell culture plates in duplicate, and were cultured for 3 days until the cells grew to full-hole. Cells were treated with 4-fold serial dilutions of compounds for 10 days, and were given once every other day. The final concentration of DMSO in all pores was 0.5% and DMSO was used as a drug-free control. The supernatant was collected for quantitative detection of HBsAg on day 11.
# The level of HBsAg secreted by the cells after treatment of the compound was detected by ELISA method, and the method used a hepatitis B surface antigen diagnostic kit (Shanghai Kehua Biotech Co., Ltd. S10910113). 25 μL of the supernatant to be assayed (PBS was diluted to 75 μL) was added to per well in the ELISA plate, and the kit positive control and negative control were set. The ELIS A plate was blocked with a cover paper and incubated at 37° C. for 60 minutes. The ELISA plate was taken out, and the cover paper was teared off, and 50 μL of enzyme conjugate was added to each well. The ELISA plate was oscillated on the shaker for 10 seconds, blocked with a cover paper and incubated at 37° C. for 30 minutes. The ELISA plate was taken out, the cover paper was teared off, and the ELISA plate was washed 5 times: each time the liquid in the hole was discarded, and the washing liquid was filled into the holes, left to stand for 60 seconds, dried, and the liquid residue was patted to dry on the absorbent paper. A freshly prepared mixture of Developer A and Developer B was added to all wells immediately after washing: 100 μL per well. The ELISA plate was oscillated on the shaker for 10 seconds, blocked with a cover paper and incubated at 37° C. for 30 minutes. 50 μL of stop solution was added to all wells. Absorbance was read on the Envision plate reader at a wavelength of 450 nm.
# Concentration-HBsAg OD450 was processed using Graphpad Prism 5 software, and IC50 of compounds inhibiting against HBsAg secretion was calculated by four-parameter nonlinear regression model.
# HBV DNA replication = experiment: Inhibition experiment on HBV virus replication (HepG 2,2,15 cells, supernatant HBV DNA by qPCR); type: cell-based; settings: Hepatitis B virus, HepG2.2.15, 10 days treatment, supernatant HBV DNA on day 11
# From the text: as §2
# as §3, with “HBV DNA” for “HBsAg”
# Viral genomic DNA was detected by qPCR method, and HBV primers were as follows: […]
# The SYBR Premix Ex Taq D-Takara DRR081S kit was used, and 1 μL of cell culture supernatant was used as a template. A standard curve was made using a plasmid containing the HBV genome, and the viral copy number was calculated using the standard curve. Concentration-virus copy number was processed using Graphpad Prism 5 software, and IC50 of compounds inhibiting virus replication was calculated by four-parameter nonlinear regression model.
# [2] = PK test experiments in beagle dogs; type: in vivo; settings: for AUC(0-inf) / AUC(0-t) / Cmax / clearance: male, dog, plasma
# Description: as §1, with “beagle dogs” for “SD rats”, “10-12 kg,” for “200-250 g,”, “10-12” for “2-3”, “beagle dog” for “SD rat”, “administered orally with 2.5 mg/kg or 5 mg/kg of the compound tested or intravenously injected with 0.5 mg/kg or 1 mg/kg of the compound tested.” left out, “4, 6, 8” for “5, 7”
SMILES,"VSS ([1]; IV, 1 mg/kg)","F ([1]; PO, 5 mg/kg) [%]","AUC(0-inf) ([1]; IV, 1 mg/kg) [ng·h/mL]","AUC(0-t) ([1]; IV, 1 mg/kg) [ng·h/mL]","Cmax ([1]; IV, 1 mg/kg) [ng/mL]","clearance ([1]; IV, 1 mg/kg) [mL/min/kg]","AUC(0-inf) ([1]; PO, 5 mg/kg) [ng·h/mL]","AUC(0-t) ([1]; PO, 5 mg/kg) [ng·h/mL]","Cmax ([1]; PO, 5 mg/kg) [ng/mL]",IC50 (HBsAg secretion) [nM],IC50 (HBV DNA replication) [nM],"VSS ([2]; IV, 0.5 mg/kg) [kg⁻¹]","F ([2]; PO, 2.5 mg/kg) [%]","AUC(0-inf) ([2]; IV, 0.5 mg/kg) [ng·h/mL]","AUC(0-t) ([2]; IV, 0.5 mg/kg) [ng·h/mL]","Cmax ([2]; IV, 0.5 mg/kg) [ng/mL]","clearance ([2]; IV, 0.5 mg/kg) [mL/min/kg]","AUC(0-inf) ([2]; PO, 2.5 mg/kg) [ng·h/mL]","AUC(0-t) ([2]; PO, 2.5 mg/kg) [ng·h/mL]","Cmax ([2]; PO, 2.5 mg/kg) [ng/mL]"
"COCCCOc1cc2c(c3c1OCC3)-c1cc(=O)c(C(=O)O)cn1C(C(C)C)C2 (centres unmarked) [Example 2, 7-Isopropyl-4-(3-methoxypropoxy)-11-oxo-2,6,7,11-tetrahydro-1H-furo[2,3-h]pyrido[2,1-a]isoquinoline-10-carboxylic Acid]",1.8,174.5,1330,1210,738,12.6,10600,10600,1860,1.45,1.21,–,–,–,–,–,–,–,–,–
"CC(C)N1Cc2cc(OCCC3CC3)c3c(c2-c2cc(=O)c(C(=O)O)cn21)CCO3 [Example 15, 4-(2-Cyclopropylethoxy)-7-isopropyl-11-oxo-2,6,7,11-tetrahydro-1H-furo [2,3-h]pyrido[2,1-a]phthalazine-10-carboxylic Acid]",0.9,157.9,2280,2140,1500,7.32,17800,17700,2170,3.13,1.81,0.23,102.2,12200,11900,2010,0.69,62400,60500,7090
"CC1(C)CCC2c3cc(OCCC4CC4)c4c(c3-c3cc(=O)c(C(=O)O)cn3N21)CCO4 (centres unmarked) [Example 13, 5-(2-Cyclopropylethoxy)-1,1-dimethyl-10-oxo-2,3,3a,7,8,10-hexahydro-1H-furo[3,2-f]pyrido[1,2-c]pyrrolo[2,1-a]phthalazine-11-carboxylic Acid]",1.4,129,2860,2830,1000,5.84,18400,18300,1700,0.34,< 0.24,–,–,–,–,–,–,–,–,–
"CC(C)C1Cc2cc(OCCC3CC3)c3c(c2-c2cc(=O)c(C(=O)O)cn21)CCO3 (centres unmarked) [Example 3, 4-(2-Cyclopropylethoxy)-7-isopropyl-11-oxo-2,6,7,11-tetrahydro-1H-furo[2,3-h]pyrido[2,1-a]isoquinoline-10-carboxylic Acid]",1.5,167.4,1760,1630,744,9.45,14800,14700,1810,1.4,1.6,–,–,–,–,–,–,–,–,–
"CC(C)N1Cc2cc(-c3cnn(C(C)C)c3)c3c(c2-c2cc(=O)c(C(=O)O)cn21)CCO3 [Example 17, 7-Isopropyl-4-(1-isopropyl-11-pyrazol-4-yl)-11-oxo-2,6,7,11-tetrahydro-1H-furo[2,3-h]pyrido[2,1-a]phthalazine-10-carboxylic Acid]",1.01,130.6,1640,1610,932,10.1,10700,10700,1620,3.27,1.51,–,–,–,–,–,–,–,–,–
"CC(C)C1Cc2cc(OCC3CC3)c3c(c2-c2cc(=O)c(C(=O)O)cn21)CCO3 (centres unmarked) [Example 23, 4-(Cyclopropylmethoxy)-7-isopropyl-11-oxo-2,6,7,11-tetrahydro-11-furo [2,3-h]pyrido[2,1-a]isoquinoline-10-carboxylic Acid]",–,–,–,–,–,–,–,–,–,1.14,3.36,–,–,–,–,–,–,–,–,–
"CC(C)C1Cc2cc(-c3cnn(C(C)C)c3)c3c(c2-c2cc(=O)c(C(=O)O)cn21)CCO3 (centres unmarked) [Example 9, 7-Isopropyl-4-(1-isopropyl-1H-pyrazol-4-yl)-11-oxo-2,6,7,11-tetrahydro-1H-furo[2,3-h]pyrido[2,1-a]isoquinoline-10-carboxylic Acid]",2.2,94,1190,1180,641,14,5590,5560,1630,2.83,1.1,–,–,–,–,–,–,–,–,–
"CC(C)N1Cc2cc(-c3cnn(C(F)F)c3)c3c(c2-c2cc(=O)c(C(=O)O)cn21)CCO3 [Example 43, 4-(1-(Difluoromethyl)-1H-pyrazol-4-yl)-7-isopropyl-11-oxo-2,6,7,11-tetrahydro-1H-furo[2,3-h]pyrido[2,1-a]phthalazine-10-carboxylic Acid]",–,–,–,–,–,–,–,–,–,0.98,1.85,0.48,100.7,9990,9030,1080,0.83,49300,45500,5770
"COCCCOc1cc2c(c3c1OCC3)-c1cc(=O)c(C(=O)O)cn1N1C2CCC1(C)C (centres unmarked) [Example 12, 5-(3-Methoxypropoxy)-1,1-dimethyl-10-oxo-2,3,3a,7,8,10-hexahydro-1H-furo [3,2-f]pyrido[1,2-c]pyrrolo[2,1-a]phthalazine-11-carboxylic Acid]",–,–,–,–,–,–,–,–,–,0.81,< 0.24,–,–,–,–,–,–,–,–,–
"CC(C)C1Cc2cc(OCC3CCOCC3)c3c(c2-c2cc(=O)c(C(=O)O)cn21)CCO3 (centres unmarked) [Example 5, 7-Isopropyl-11-oxo-4-((tetrahydro-2H-pyran-4-yl)methoxy)-2,6,7,11-tetrahydro-1H-furo[2,3-h]pyrido[2,1-a]isoquinoline-10-carboxylic Acid]",–,–,–,–,–,–,–,–,–,2.35,3.4,–,–,–,–,–,–,–,–,–
"CC(C)C1Cc2cc(-c3cncnc3)c3c(c2-c2cc(=O)c(C(=O)O)cn21)CCO3 (centres unmarked) [Example 30, 7-Isopropyl-11-oxo-4-(pyrimidin-5-yl)-2,6,7,11-tetrahydro-1H-furo[2,3-h]pyrido[2,1-a]isoquinoline-10-carboxylic Acid]",–,–,–,–,–,–,–,–,–,5.3,1.95,–,–,–,–,–,–,–,–,–
"CC(C)C1Cc2cc(C#CC3CC3)c3c(c2-c2cc(=O)c(C(=O)O)cn21)CCO3 (centres unmarked) [Example 31, 4-(Cyclopropylethynyl)-7-isopropyl-11-oxo-2,6,7,11-tetrahydro-1H-furo [2,3-h]pyrido[2,1-a]isoquinoline-10-carboxylic Acid]",–,–,–,–,–,–,–,–,–,1.39,0.72,–,–,–,–,–,–,–,–,–
"CC(C)C1Cc2cc(-c3cnn(C4COC4)c3)c3c(c2-c2cc(=O)c(C(=O)O)cn21)CCO3 (centres unmarked) [Example 35, 7-Isopropyl-4-(1-(oxetan-3-yl)-1H-pyrazol-4-yl)-11-oxo-2,6,7,11-tetra hydro-1H-furo[2,3-h]pyrido[2,1-a]isoquinoline-10-carboxylic Acid]",–,–,–,–,–,–,–,–,–,3.29,2.35,–,–,–,–,–,–,–,–,–
